Assay results from patent US8394820B2, “N-azabicyclic carboxamide derivatives, preparation thereof and therapeutic use thereof” (Sanofi, priority 2008, dated 2013).

tested on: not given; assay: not given; conditions: not given

SMILES | melting point [°C]
O=C(Nc1ccc2nc(CO)cn2c1)c1cc2cc(F)ccc2n1Cc1cccc(F)c1 | 247 to 249
O=C(Nc1ccn2cc(CO)nc2c1)c1cc2cc(F)ccc2n1Cc1cccc(F)c1 | 244 to 245
O=C(Nc1ccc2nc(-c3cccs3)cn2c1)c1cc2cc(F)ccc2n1Cc1cccc(F)c1 | 316 to 318
O=C(Nc1ccn2cc(-c3cccs3)nc2c1)c1cc2cc(F)ccc2n1Cc1cccc(F)c1 | 259 to 260
CCc1cn2ccc(NC(=O)c3cc4cc(C(F)(F)F)cnc4n3Cc3cccc(F)c3)cc2n1 | 264 to 265
Cc1cn2ccc(NC(=O)c3cc4cc(F)ccc4n3Cc3cccc(F)c3)cc2n1 | 267 to 268
CC(C)(C)c1cn2cc(NC(=O)c3cc4cc(F)ccc4n3Cc3cccc(F)c3)ccc2n1 | 190 to 192
Cc1cc2ncc(NC(=O)c3cc4cc(F)ccc4n3Cc3cccc(F)c3)cn2n1 [Compound 20, N-(2-Methylpyrazolo[1,5-a]pyrimidin-6-yl)-5-fluoro-1-[(3-fluorophenyl)methyl]-1H-indole-2-carboxamide] | 267 to 268
CCOC(=O)c1cn2cc(NC(=O)c3cc4cc(F)ccc4n3Cc3cccc(F)c3)ccc2n1 | 242 to 245
Cc1nc2cc(NC(=O)c3cc4cc(F)ccc4n3Cc3cccc(F)c3)ccn2c1-c1ccccc1 | 305 to 307
Cc1nc2cc(NC(=O)c3cc4cc(C(F)(F)F)ccc4n3Cc3cccc(F)c3)ccn2c1C | 280 to 281
CCOC(=O)c1cn2nc(NC(=O)c3cc4cc(F)ccc4n3Cc3cccc(F)c3)ccc2n1 | 267 to 268
COCc1cn2ccc(NC(=O)c3cc4cc(F)ccc4n3Cc3cccc(F)c3)cc2n1 | 215 to 216
Cc1cn2cc(NC(=O)c3cc4cc(F)ccc4n3Cc3cccc(F)c3)ccc2n1 | 200 to 203
Cc1nc2cc(NC(=O)c3cc4cc(C(F)(F)F)cnc4n3Cc3cccc(F)c3)ccn2c1C | 287 to 288
CCc1cn2cc(NC(=O)c3cc4cc(F)ccc4n3Cc3cccc(F)c3)ccc2n1 | 278 to 279
O=C(Nc1ccn2cc(CO)nc2c1)c1cc2cc(C(F)(F)F)ccc2n1Cc1cccc(F)c1 | 254 to 255
CC(C)(C)c1cn2ccc(NC(=O)c3cc4cc(F)ccc4n3Cc3cccc(F)c3)cc2n1 | 327 to 328
O=C(Nc1ccn2cc(CO)nc2c1)c1cc2cc(C(F)(F)F)cnc2n1Cc1cccc(F)c1 | 238 to 240

target: T1, TRPV1 receptor (Rattus norvegicus, UniProt O35433); assay: Test of inhibition of the current induced with capsaicin on rat DRGs (whole-cell patch-clamp); assay type: cell-based; conditions: compound at 1 nM; inhibition of control capsaicin response; primary culture of newborn rat DRG neurones
T1 construct: DRG neurones naturally express the TRPV1 receptor; endogenous in cells; host or cells: primary culture of newborn (1-day-old) rat dorsal root ganglion neurones
Procedure: Test of Inhibition of the Current Induced with Capsaicin on Rat DRGs • Primary culture of rat dorsal root ganglion (DRG) cells:
DRG neurones naturally express the TRPV1 receptor.
The primary cultures of newborn rat DRGs are prepared using 1-day-old rats. Briefly, after dissection, the ganglions are trypsinized and the cells dissociated by mechanical trituration. The cells are resuspended in an Eagle basal culture medium containing 10% foetal calf serum, 25 mM KCl, 2 mM glutamine, 100 μg/ml gentamicin and 50 ng/ml of NGF, and then deposited on glass slides coated with laminin (0.25×10^6 cells per slide), which are then placed in Corning 12-well dishes. The cells are incubated at 37° C. in a humidified atmosphere containing 5% CO2 and 95% air. […]
The measuring chambers (volume 800 μl) containing the cell preparation are placed on the platform of an inverted microscope (Olympus IMT2) equipped with Hoffman optics (Modulation Contrast, New York) and observed at a magnification of 400×. […] The overall currents (membrane potential set at −60 mV) are recorded with an Axopatch 1D amplifier (Axon Instruments, Foster City, Calif.), connected to a PC running the Pclamp8 software (Axon Instrument). The current plots are recorded on paper and simultaneously digitized (sampling frequency 15 to 25 Hz) and acquired on the hard drive of the PC. […]

T1 sequence (O35433 whole entry): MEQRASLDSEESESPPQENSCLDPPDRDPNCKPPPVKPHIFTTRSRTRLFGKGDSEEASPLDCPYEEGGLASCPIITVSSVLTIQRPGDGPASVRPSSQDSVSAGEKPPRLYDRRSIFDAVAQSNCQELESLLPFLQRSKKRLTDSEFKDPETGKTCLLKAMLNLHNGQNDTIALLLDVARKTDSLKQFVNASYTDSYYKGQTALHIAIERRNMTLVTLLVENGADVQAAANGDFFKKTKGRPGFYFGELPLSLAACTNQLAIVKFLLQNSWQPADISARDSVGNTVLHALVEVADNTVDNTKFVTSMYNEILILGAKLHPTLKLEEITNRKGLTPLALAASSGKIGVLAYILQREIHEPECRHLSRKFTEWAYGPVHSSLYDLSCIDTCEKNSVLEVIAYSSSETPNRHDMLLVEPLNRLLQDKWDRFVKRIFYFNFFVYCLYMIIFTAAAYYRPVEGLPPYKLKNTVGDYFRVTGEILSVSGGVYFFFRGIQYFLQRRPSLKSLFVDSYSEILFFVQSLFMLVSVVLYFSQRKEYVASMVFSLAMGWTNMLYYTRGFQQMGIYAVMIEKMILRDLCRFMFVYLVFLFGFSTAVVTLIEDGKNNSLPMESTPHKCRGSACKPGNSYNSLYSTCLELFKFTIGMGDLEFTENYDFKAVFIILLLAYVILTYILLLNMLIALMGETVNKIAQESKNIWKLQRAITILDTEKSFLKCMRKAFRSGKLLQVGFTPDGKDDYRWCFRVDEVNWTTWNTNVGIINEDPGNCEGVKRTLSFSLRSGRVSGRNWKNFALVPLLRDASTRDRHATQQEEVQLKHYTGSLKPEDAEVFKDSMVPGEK

SMILES | inhibition at 0.001 µM [%]
Cc1nc2cc(NC(=O)c3cc4cc(F)ccc4n3Cc3cccc(F)c3)ccn2c1C [Compound 1, N-(2,3-Dimethylimidazo[1,2-a]pyrid-7-yl)-5-fluoro-1-[(3-fluorophenyl)methyl]-1H-indole-2-carboxamide] | 81.5

same assay, conditions: compound at 100 nM; inhibition of control capsaicin response; primary culture of newborn rat DRG neurones

SMILES | inhibition at 0.1 µM [%]
Cc1cc2ncc(NC(=O)c3cc4cc(F)ccc4n3Cc3cccc(F)c3)cn2n1 [Compound 20, N-(2-Methylpyrazolo[1,5-a]pyrimidin-6-yl)-5-fluoro-1-[(3-fluorophenyl)methyl]-1H-indole-2-carboxamide] | 80
